Measured values reported in PubChem BioAssay (NCI).
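Five compound concentrations were applied to cells in 96-well plates for 48 hours; endpoints were derived by simple linear interpolation of the resulting dose-response curve. At the TGI there is no net growth.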

Tested on: SN12C renal
Test: NCI anticancer screen, dose series, 48 h

SMILES | TGI
O=C(O)c1ccc(OCc2nc3cc(C(F)(F)F)ccc3nc2-c2ccccc2)cc1 | > 100 µM
COc1ccc2c(c1)CCN1CCc3ccccc3CC21 (centres undefined) | > 100 µM
CN(C)c1ccc(C2SCC(=O)N2c2ccc(Oc3ccc(Cl)cc3)c(Cl)c2)cc1 (centres undefined) | 50 µM
COc1ccc(/C=C2\N=C(SC)NC2=O)cc1 | > 100 µM
Nc1ccc(C(=O)N2CCC[C@H]2CO)c(N)c1 | > 100 µM
O=c1oc2ccc([N+](=O)[O-])cc2c(Nc2ccc3c(c2)Oc2ccccc2O3)c1[N+](=O)[O-] | > 100 µM
CC1=C(CO)C(=O)O[C@@H]([C@@H](CO)[C@H]2CCC3C4C[C@@H](O)[C@@]5(O)CC=CC(=O)[C@]5(C)C4CC[C@@]32C)C1 (some centres undefined) | > 100 µM
Cn1c2ccccc2c(=O)c2cccc(C(=O)NC(CCCN=C(N)N)C(=O)O)c21 (centres undefined) | > 100 µM
O=C(O)/C=c1/c2ccccc2n2nc3ccccc3c12 | 88.8 µM
O=C1c2ccccc2C2(c3ccc(Cl)cc3)N[C@H]3CCCC[C@@H]3N12 (some centres undefined) | > 100 µM

Tested on: SW-620 colon
Test: NCI anticancer screen, dose series, 48 h

SMILES | TGI
C=C1C(=O)C=C[C@]2(C)CC[C@H]3C(=C)C(=O)O[C@@H]3[C@@H]12 | 5.34 µM
CC12CCC(O)CC1CCC1C2CCC2(C)C(C(=O)CC(O)C(F)(F)F)CCC12 (centres undefined) | > 100 µM
CC(C)(C)OC(=O)NCCCNC1(c2cc3ccccc3s2)CCCCC1 | 40.9 µM
CC(C)(C)C(=O)CC1=Nc2ccccc2SC1(O)CC(=O)C(C)(C)C (centres undefined) | > 100 µM
N#CC1=C(N)N(c2ccccc2)C(c2ccccc2)C1(C#N)C#N (centres undefined) | 37.2 µM
C=CCOc1ccc(C2(O)c3ccccc3C3=NCCCN32)cc1 (centres undefined) | > 100 µM
O=C1/C(=C/c2ccc(Cl)cc2)CSc2ccccc21 | > 100 µM
COc1cccc(/C=N/n2c(C)n[nH]c2=O)c1 | > 100 µM
Cc1ccc(S(=O)(=O)NC(=O)N[C@@H](Cc2cnc[nH]2)C(=O)O)cc1 | > 100 µM
CCN1CCC(O)(/C=C/c2ccc(C)cc2C)C(C(=O)/C=C/c2ccc(C)cc2C)C1 (centres undefined) | 10.4 µM
S=C(Nc1ccc2c(c1)oc1ccccc12)c1cccnc1 | > 100 µM
Cc1cc(S(=O)(=O)Nc2nc3cc(-c4ccc(Cl)cc4)sc3c(=O)n2N)c(S)cc1Cl | > 100 µM
[N-]=[N+]=NC1=C(c2ccccn2)C(=O)c2cccc3cccc1c23 | > 100 µM
C=C([C@@]1(O)C[C@H]2[C@H](CCC2(OC)OC)[C@@H]2c3ccccc3O[C@@H]21)[Si](C)(C)C | > 100 µM
O=C(O)c1ccc(OCc2nc3cc(C(F)(F)F)ccc3nc2-c2ccccc2)cc1 | > 100 µM
COc1ccc2c(c1)CCN1CCc3ccccc3CC21 (centres undefined) | > 100 µM
CN(C)c1ccc(C2SCC(=O)N2c2ccc(Oc3ccc(Cl)cc3)c(Cl)c2)cc1 (centres undefined) | > 100 µM
COc1ccc(/C=C2\N=C(SC)NC2=O)cc1 | > 100 µM
Nc1ccc(C(=O)N2CCC[C@H]2CO)c(N)c1 | > 100 µM
CC1=C(CO)C(=O)O[C@@H]([C@@H](CO)[C@H]2CCC3C4C[C@@H](O)[C@@]5(O)CC=CC(=O)[C@]5(C)C4CC[C@@]32C)C1 (some centres undefined) | > 100 µM
Cn1c2ccccc2c(=O)c2cccc(C(=O)NC(CCCN=C(N)N)C(=O)O)c21 (centres undefined) | > 100 µM
O=C(O)/C=c1/c2ccccc2n2nc3ccccc3c12 | > 100 µM
O=C1c2ccccc2C2(c3ccc(Cl)cc3)N[C@H]3CCCC[C@@H]3N12 (some centres undefined) | > 100 µM

Tested on: T-47D breast
Test: NCI anticancer screen, dose series, 48 h

SMILES | TGI
C=C1C(=O)C=C[C@]2(C)CC[C@H]3C(=C)C(=O)O[C@@H]3[C@@H]12 | 20.7 µM
CC12CCC(O)CC1CCC1C2CCC2(C)C(C(=O)CC(O)C(F)(F)F)CCC12 (centres undefined) | > 100 µM
CC(C)(C)OC(=O)NCCCNC1(c2cc3ccccc3s2)CCCCC1 | 39.7 µM
CC(C)(C)C(=O)CC1=Nc2ccccc2SC1(O)CC(=O)C(C)(C)C (centres undefined) | 67.8 µM
N#CC1=C(N)N(c2ccccc2)C(c2ccccc2)C1(C#N)C#N (centres undefined) | 24.4 µM
C=CCOc1ccc(C2(O)c3ccccc3C3=NCCCN32)cc1 (centres undefined) | > 74.6 µM
O=C1/C(=C/c2ccc(Cl)cc2)CSc2ccccc21 | 58.3 µM
CCC/C(Cl)=N\OC(=O)Nc1ccc(OC(F)(F)F)cc1 | 7.65 µM
COc1cccc(/C=N/n2c(C)n[nH]c2=O)c1 | > 100 µM
Cc1ccc(S(=O)(=O)NC(=O)N[C@@H](Cc2cnc[nH]2)C(=O)O)cc1 | > 100 µM
CC(=O)OCC1OC(n2c3c(cc(C#N)c2=S)CCCCC3)C(OC(C)=O)C(OC(C)=O)C1OC(C)=O (centres undefined) | > 100 µM
CCN1CCC(O)(/C=C/c2ccc(C)cc2C)C(C(=O)/C=C/c2ccc(C)cc2C)C1 (centres undefined) | 8.01 µM
S=C(Nc1ccc2c(c1)oc1ccccc12)c1cccnc1 | > 100 µM
Cc1cc(S(=O)(=O)Nc2nc3cc(-c4ccc(Cl)cc4)sc3c(=O)n2N)c(S)cc1Cl | > 100 µM
[N-]=[N+]=NC1=C(c2ccccn2)C(=O)c2cccc3cccc1c23 | > 100 µM
C=C([C@@]1(O)C[C@H]2[C@H](CCC2(OC)OC)[C@@H]2c3ccccc3O[C@@H]21)[Si](C)(C)C | > 100 µM
O=C(O)c1ccc(OCc2nc3cc(C(F)(F)F)ccc3nc2-c2ccccc2)cc1 | > 100 µM
COc1ccc2c(c1)CCN1CCc3ccccc3CC21 (centres undefined) | > 100 µM
CN(C)c1ccc(C2SCC(=O)N2c2ccc(Oc3ccc(Cl)cc3)c(Cl)c2)cc1 (centres undefined) | 61 µM
COc1ccc(/C=C2\N=C(SC)NC2=O)cc1 | > 100 µM
Nc1ccc(C(=O)N2CCC[C@H]2CO)c(N)c1 | > 100 µM
O=c1oc2ccc([N+](=O)[O-])cc2c(Nc2ccc3c(c2)Oc2ccccc2O3)c1[N+](=O)[O-] | > 100 µM
CC1=C(CO)C(=O)O[C@@H]([C@@H](CO)[C@H]2CCC3C4C[C@@H](O)[C@@]5(O)CC=CC(=O)[C@]5(C)C4CC[C@@]32C)C1 (some centres undefined) | > 100 µM
Cn1c2ccccc2c(=O)c2cccc(C(=O)NC(CCCN=C(N)N)C(=O)O)c21 (centres undefined) | > 100 µM
O=C(O)/C=c1/c2ccccc2n2nc3ccccc3c12 | > 100 µM
O=C1c2ccccc2C2(c3ccc(Cl)cc3)N[C@H]3CCCC[C@@H]3N12 (some centres undefined) | > 100 µM
